Test results taken from US9339541B2, “Thiophosphate nucleosides for the treatment of HCV” (priority 2013, dated 2016).

System: HCV genotype 1b replicon
Assay type: cell-based
Conditions: Huh-7-derived cell line (Zluc), HCV genotype 1b replicon with luciferase reporter, 72 hours of incubation

Q: How did the EC50 turn out when CCOc1nc(N)nc2c1ncn2[C@@H]1O[C@H](COP(=O)(N[C@@H](C)C(=O)OC(C)C)SCC2NC(=O)NC2=O)[C@@H](O)[C@@]1(C)F (single isomer, unassigned) [3b Diastereomer 1] was run?
A: 1 to 10 µM

Q: For CC(C)OC(=O)[C@H](C)NP(=O)(OC[C@H]1O[C@@H](n2ccc(=O)[nH]c2=O)[C@](C)(O)[C@@H]1O)SCC1NC(=O)NC1=O (single isomer, unassigned) [4b Diastereomer 1], which EC50 is on record?
A: > 10 µM

Q: CC(C)OC(=O)[C@@H](C)NP(=O)(OC[C@H]1O[C@@H](n2ccc(=O)[nH]c2=O)[C@](C)(Cl)[C@@H]1O)SC1CCCC1 (single isomer, unassigned) [8a Diastereomer 1] was tested. Which EC50 did it give?
A: > 10 µM

Q: How did the EC50 turn out when CC(C)OC(=O)[C@H](C)NP(=O)(OC[C@H]1O[C@@H](n2ccc(=O)[nH]c2=O)[C@](C)(Cl)[C@@H]1O)SC1CCCC1 (single isomer, unassigned) [8b Diastereomer 1] was run?
A: 1 to 10 µM

Q: COC(=O)N[C@@H](CSP(=O)(N[C@@H](C)C(=O)OC(C)C)OC[C@H]1O[C@@H](n2cnc3c(OC)nc(N)nc32)[C@](C)(O)[C@@H]1O)C(=O)OC(C)C (stereo partly drawn) [Compound 2by] was tested. Which EC50 did it give?
A: 1 to 10 µM

Q: With CCOC(=O)[C@H](C)NP(=O)(OC[C@H]1O[C@@H](n2cnc3c(OCC)nc(N)nc32)[C@](C)(O)[C@@H]1O)SCC (stereo partly drawn) [Compound 10b] as the compound, how does the EC50 read?
A: ≤ 0.25 µM

Q: Which EC50 does the source give for CCOC(=O)[C@H](C)NP(=O)(OC[C@H]1O[C@@H](n2cnc3c(=O)[nH]c(N)nc32)[C@](C)(O)[C@@H]1O)SCC (stereo partly drawn) [Compound 13b] here?
A: 1 to 10 µM

Q: For CCOC(=O)CCSP(=O)(N[C@@H](C)C(=O)OC(C)C)OC[C@H]1O[C@@H](n2ccc(=O)[nH]c2=O)[C@](C)(O)[C@@H]1O (stereo partly drawn) [Compound 15b], which EC50 is on record?
A: > 10 µM

Q: With COC(=O)CSP(=O)(N[C@@H](C)C(=O)OC(C)C)OC[C@H]1O[C@@H](n2ccc(=O)[nH]c2=O)[C@](C)(Cl)[C@@H]1O (stereo partly drawn) [Compound 17b] as the compound, how does the EC50 read?
A: > 10 µM
